Laboratory results as given in the COVID Moonshot data (paper PMC11187573), “Identification of SARS-CoV-2 Mpro inhibitors through deep reinforcement learning for de novo drug design and computational chemistry approaches” (RSC Medicinal Chemistry, 2024).

Legend:
[1] = target: SARS-CoV-2 Main Protease (SARS-CoV-2) (UniProt P0DTD1)
Method: Compounds were seeded into assay-ready plates (Greiner 384 low volume, cat 784900) using an Echo 555 acoustic dispenser, and DMSO was back-filled for a uniform concentration in assay plates (DMSO concentration maximum 1%) Screening assays were performed in duplicate at 20µM and 50µM. […] Dose response assays were performed in 12 point dilutions of 2-fold, typically beginning at 100µM. […] Reagents for Mpro assay were dispensed into the assay plate in 10µl volumes for a final volume of 20µL.
Mpro was pre-incubated for 15 minutes at room temperature with compound before addition of substrate and a further 30 minute incubation. Protease reaction was measured in a BMG Pherastar FS with a 480/520 ex/em filter set. Raw data was mapped and normalized to high (Protease with DMSO) and low (No Protease) controls using Genedata Screener software.

[2] = target: SARS-CoV-2 Main Protease (SARS-CoV-2) (UniProt P0DTD1); remark: listed apart in the source

Structure (SMILES) | inhibition ([1]; 50.0 µM) [%] | inhibition ([2]; 20.0 µM) [%] | inhibition ([2]; 50.0 µM) [%] | relative solubility at 20 uM | relative solubility at 100 uM | inhibition ([1]; 20.0 µM) [%] | IC50 [1] [µM] | IC50 [2] [µM]
Cc1ccncc1-c1ccc(S(N)(=O)=O)cc1 | 8.58 | -2.96 | -2.15 | 1 | 1 |  |  | 
Cc1ccncc1NC(=O)Cc1cccc(C(N)=O)c1 | -5.83 |  | 0.535 | 1.01 | 1.01 | 2.66 |  | 
O=C(Cc1ccc(F)cc1)Nc1cccc2cc[nH]c12 | -33.9 |  | 0 | 1 | 0.88 | -2.43 |  | 
C=CC(=O)NCC(=O)N(CCN1CCOCC1)Cc1ccccc1Cl | -19.7 | 0 | 0 | 1 | 1 | -18.3 |  | 
C=CC(=O)N(c1ccc(C(C)(C)C)cc1)C(C(=O)NC1CCOCC1)c1cccnc1 (configuration not stated) | 0.668 | 0.841 | 31.1 | 0.99 | 1 | 9.01 |  | 
CCCN(CC1COc2ccccc2O1)C(=O)c1cc(=O)[nH]c2cc(F)ccc12 (configuration not stated) | 8.33 |  | 0 | 0.98 | 0.98 | 5.21 |  | 
NC(=O)[C@@H]1CN(C2CCOCC2)C[C@H]1c1ccccc1 (stereo in doubt) | -23 | 0 | 0 | 1 | 1 | -22.2 |  | 
CCOc1ccccc1OC1CCN(C(=O)c2cc(=O)[nH]c3ccc(F)cc23)C1 (configuration not stated) | 18.2 |  | 0 | 1 | 0.99 | 6.76 |  | 
Cc1nn(-c2ccccc2)c(Nc2cccc(C(F)(F)F)c2)c1NS(C)(=O)=O | -5.82 |  | -10.6 | 0.95 | 0.97 | 3.18 |  | 
CC(=O)N1CCN(S(=O)(=O)c2ccsc2)CC1 | -20.6 | 0 | 3.62 | 0.99 | 1 |  |  | 
C=CC(=O)N(c1ccc(C(C)(C)C)cc1)C(C(=O)NC1CC(C(=O)OC)C1)c1cccnc1 (configuration not stated) | 4.24 | 0 | 0 | 0.99 | 0.98 | 5.7 |  | 
NS(=O)(=O)c1ccc(N2CCC(N3CCCCC3)CC2)cc1 | 7.79 | 0 | 0 | 1 | 1 |  |  | 
CC(=O)N[C@@H](Cc1ccc(O)cc1)C(=O)NC(CN1CCN(C(=O)CCl)CC1)c1ccccc1 (stereo in doubt) | 41.2 |  | 31.1 | 0.99 | 1 | 21.3 |  | 
CNCc1c[nH]c2ccc(F)cc12 | 32.7 | 3.09 | 16.1 | 0.99 | 1 |  |  | 
Cc1ccncc1NC(=O)Nc1ccccc1 | 21.1 | 0 | -0.18 | 1 | 1 |  |  | 
C=CC(=O)N(c1cc(C(C)(C)C)on1)C(C(=O)NCCc1cccc(F)c1)c1cncc(C)c1 (configuration not stated) | 24.8 |  | 0 | 1 | 0.91 | 17.5 |  | 
O=C(Cc1cccc(Cl)c1)Nc1cnccn1 | 13.3 |  | 0 | 1.01 | 1 | 3.71 |  | 
N#Cc1cnn(-c2ccccc2NC(=O)Cc2ccn[nH]2)c1N | 2.96 | 0 |  | 1 | 0.96 | -9.14 |  | 
CN(CC1COc2ccccc2O1)C(=O)c1cc(=O)[nH]c2ccc(F)cc12 (configuration not stated) | 1.67 |  | 0 | 0.99 | 0.99 | -4.21 |  | 
COc1ncccc1N(C)C(=O)C1CCOc2ccc(Cl)cc21 (configuration not stated) | 2.54 |  | 0 | 1 | 0.98 | -2.61 |  | 

Structure (SMILES) | inhibition ([1]; 50.0 µM) [%] | inhibition ([2]; 20.0 µM) [%] | inhibition ([2]; 50.0 µM) [%] | relative solubility at 20 uM | relative solubility at 100 uM | inhibition ([1]; 20.0 µM) [%] | IC50 [1] [µM] | IC50 [2] [µM]
CNS(=O)(=O)c1ccc(C(C)NC(=O)NC(C)(C)C)cc1 (configuration not stated) | -0.25 | 0 | 0 | 1 | 1 | -0.809 |  | 
COc1ccccc1OC1CCCN(C(=O)c2cc(=O)[nH]c3ccc(Cl)cc23)C1 (configuration not stated) | 5.27 |  | 0 | 0.99 | 0.93 | -0.617 |  | 
CN1CCC(C(=O)NC2CCCCC2NC(=O)C2CCCCC2)CC1 (configuration not stated) | -19.4 | 0 |  | 1 | 1.01 | -19.4 |  | 
O=S(=O)(Cc1ccc(F)cc1)Nc1cccnc1 | -13.8 |  | -5.13 | 1 | 1 | 6.67 |  | 
Cc1ccncc1NC(=O)c1cccc(NC(=O)Nc2cccnc2)c1 | -23.3 | 2.38 | 1.27 | 1 | 1 |  |  | 
NS(=O)(=O)c1ccc(C(=O)N2Cc3ccccc3C(c3ccccc3)C2)cc1 (configuration not stated) | 8.23 | 0 |  | 0.95 | 0.96 | 0.809 |  | 
O=C(Nc1nnc(-c2ccccn2)o1)C1CCN(S(=O)(=O)c2ccc(F)cc2)CC1 | -71 |  | 0 | 0.95 | 0.96 | 3.87 |  | 
CCN(CC1COc2ccccc2O1)C(=O)c1cc(=O)[nH]c2ccc(Cl)cc12 (configuration not stated) | 2.69 |  | 0 | 0.95 | 0.89 | 8.72 |  | 
Cc1csc(C(=O)N/N=C/c2cccnc2)c1N | -19.8 |  | -6.32 | 0.99 | 0.93 | -0.86 |  | 
O=C(CCl)Nc1nc2c(S(=O)(=O)NCCc3ccccc3)cccc2s1 | 74.5 |  | 80.3 | 0.89 | 0.66 | 58 | 13.9 | 8.55
NC(=O)C1CCN(c2nnc(C3CCC(=O)N3)n2CCc2cc(F)cc(F)c2)CC1 (configuration not stated) | 3.83 |  | 0 | 1 | 1 | 1.27 |  | 
CC(NC(=O)c1ccccc1OC1CCCCC1)c1cnccn1 (configuration not stated) | 11.2 | 0 | 0 | 1 | 1 |  |  | 
CC(C(=O)O)c1ccc2c(c1)[nH]c1ccc(Cl)cc12 (configuration not stated) | 3.97 | 0 |  | 1 | 0.98 | -0.548 |  | 
COc1cc(CNC(=O)Cc2ncc[nH]2)c2ccccc2n1 | -23.1 | 0 | 15.6 | 1 | 1 |  |  | 
COC(=O)C(Cc1ccccc1)C(C)NC(=O)C(C)n1ccnc1 (configuration not stated) | 11.9 | 0 | 0 | 1 | 1 |  |  | 
C=CC(=O)N(c1ccc(CC)c(I)c1)C(C(=O)NC(C)(C)C)c1cccnc1 (configuration not stated) | 20.7 |  | 9.38 | 0.95 | 0.93 | 15.2 |  | 
CC(OCC1CCCCO1)C(=O)N(CCc1ccccc1)Cc1cccnc1 (configuration not stated) | -20.6 | 0 | 0 | 1 | 1 |  |  | 
CC1CC(C)CN(C(=O)c2ccccc2NC(=O)NCc2ccoc2)C1 (configuration not stated) | 8.34 | 0 | 0 | 1 | 0.99 |  |  | 
O=C(NCc1cccnn1)NC(Cc1ccccc1)c1cccs1 (configuration not stated) | 13.9 | 0 | 0 | 1 | 1 |  |  | 
